Source: patent US20040048816A1, “Restenosis treatment” (priority 2000, published 2004)

Tests used:
[1] = tested on: primary human coronary smooth muscle cells; assay: Flow cytometry of apoptosis in cultured SMCs (FITC-Annexin V / PI double staining); assay type: cell-based
Protocol: The effect of IFNγ on the survival of cultured proliferating SMCs was analyzed by flow cytometry. For this reason primary human coronary smooth muscle cells were obtained from CellSystems (Germany) and were grown in Smooth muscle cell growth medium (CellSystems) containing 5% fetal calf serum (CellSystems) at 37° C. in a humidified atmosphere of 5% CO2. SMCs were used between passages 2 and 4. Treatment with 1000 U/ml rh-IFNγ (R&D Systems) was performed for 16 h. For induction of cell death, SMCs were incubated at 37° C. for 1 h in HBSS containing 100 μmol/l H2O2 and 100 μmol/l ferrous sulfate. Afterwards the cells were further cultured in freshly prepared culture medium for 8 h. Cells were labelled with FITC-labelled Annexin V (Roche Diagnostics) and propidium iodide (PI) according to the manufacturer's instructions. 10^4 events were analyzed with a flow cytometer (Becton Dickinson).

[2] = tested on: human coronary artery smooth muscle cells (CASMC); assay: Transcriptome analysis (cDNA arrays) of treated cultured CASMC; assay type: cell-based; conditions: 1000 U/ml IFN-γ, 16 hours, 37° C.
Protocol: To adapt the transcriptional profile of cultured human coronary artery smooth muscle cells (CASMC) (Clonetics) to that of neointima, CASMC were stimulated with IFN-g and performed transcriptome analysis as described above. CASMC were cultured as described in the manufacter's manual in growth medium until 50% confluency was reached. Afterwards cells were stimulated with 1000 U/ml IFN-γ (R&D, Germany) for 16 hours at 37° C. Cells were washed twice in PBS and RNA preparation, cDNA synthesis and amplification and transcriptome analysis was performed as described above.
As proliferating CASMC overexpress FKBP12 like neointima, this cell line can be employed as a potential surrogate cell line for neointima in respect to therapeutic effects of rapamycin. Therefore, in a first step, CASMC were incubated with lo0ng/ml rapamycin (Sigma) for 24 hours and transcriptome analysis was performed in order to monitore the therapeutic effect.
Afterwards, microscopic specimen of in-stent restenotic tissue are incubated with rapamycin and transcriptome analysis was performed as described herein above. Transcriptome/gene expression pattern of rapamycin treated CASMC was compared to the transcriptome of rapamycin-treated neointima to measured the effectiveness of CASMC as a surrogate cell line for neointima.

[3] = molecular target: T1, glycoprotein IIb/IIIa (Homo sapiens, UniProt P05106+P08514); conditions: at 30 days after surgery; versus 10.6%; cited from earlier work
T1 construct: host or cells: patients in clinical trials (endogenous protein)

| Substance | spontaneous apoptosis (apoptotic cells) ([1]; SMCs after 1000 U/ml rh-IFNγ for 16 h, untreated 10%) [%] | number of apoptotic cells after induction of apoptosis with H2O2 ([1]; SMCs, 1000 U/ml rh-IFNγ 16 h, then 100 μmol/l H2O2, without IFNγ 54%) [%] | gene expression pattern of CASMCs after incubation [2] | death rate, myocardial infarction and/or target vessel vascularization [3] [%] |
| --- | --- | --- | --- | --- |
| IFNγ: recombinant human interferon γ (R&D Systems), a cytokine mainly produced by T-lymphocytes | 6 | 27 | neointima-specific IFN-γ gene expression pattern could be generated | – |
| abciximab: monoclonal antibody recognizing glycoprotein IIb/IIIa | – | – | – | 5.3 |
